The structures appear in SMILES notation. Where “and” joins values, the source holds several entries; their conditions need not be identical. Identical values can stand only once. Toxic doses and inconclusive results are not listed.

The experiment concerns L1210 leukemia ip in BDF1 mice, survival T/C. The experiment can be described thus: NCI In Vivo Anticancer Drug Screen. Data for tumor model L1210 Leukemia (intraperitoneal) in B6D2F1 (BDF1) mice. As to conditions: endpoint: mean survival time, higher = longer survival. The essentials: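 Ratio derived from survival: compound-dosed mice over vehicle-dosed mice, all bearing a transplantable tumor.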

[1] abbreviates: dose: 100.0 mg/kg/injection, schedule: Q01DX009 (ip), vehicle: Klucel (hydroxypropylcellulose) (HPC).
Where [2] appears, read: dose: 200.0 mg/kg/injection, schedule: Q01DX009 (ip), vehicle: Klucel (hydroxypropylcellulose) (HPC).
[3] abbreviates: dose: 400.0 mg/kg/injection, schedule: Q01DX009 (ip), vehicle: Klucel (hydroxypropylcellulose) (HPC).
Setting [4] is: dose: 100.0 mg/kg/injection, schedule: Q01DX009 (ip), vehicle: saline with Tween-80.
Setting [5] is: dose: 100.0 mg/kg/injection, schedule: Q04DX003 (ip), vehicle: saline.
The mark [6] stands for this setting: dose: 200.0 mg/kg/injection, schedule: Q04DX003 (ip), vehicle: saline.

Consider `O=S1(=O)N=C(Sc2ccccc2)c2ccccc21`, for which the T/C is, setting by setting: (dose: 100.0 mg/kg/injection, schedule: Q04DX002 (ip), vehicle: saline with Tween-80) 102 % of control; (dose: 200.0 mg/kg/injection, schedule: Q04DX002 (ip), vehicle: saline with Tween-80) 98 % of control; (dose: 400.0 mg/kg/injection, schedule: Q04DX002 (ip), vehicle: saline with Tween-80) 98 % of control.
As for `Nc1ccc(CC(=O)NC(CCC(=O)O)C(=O)O)cc1` (stereo not drawn), the T/C is, setting by setting: (dose: 100.0 mg/kg/injection, schedule: Q04DX002 (ip), vehicle: saline) 103 % of control; (dose: 200.0 mg/kg/injection, schedule: Q04DX002 (ip), vehicle: saline) 91 % of control; (dose: 400.0 mg/kg/injection, schedule: Q04DX002 (ip), vehicle: saline) 100 % of control.
Regarding `OC(CN1CCCCC1)c1ccc(/C=C/c2ccc(Cl)cc2)cc1` (stereo not drawn), the T/C (dose: 6.25 mg/kg/injection, schedule: Q01DX009 (ip), vehicle: saline with Tween-80) is 101 % of control; the T/C (dose: 6.25 mg/kg/injection, schedule: Q04DX003 (ip), vehicle: saline with Tween-80) was 93 % of control; the T/C (dose: 12.5 mg/kg/injection, schedule: Q01DX009 (ip), vehicle: saline with Tween-80) is 93 % of control; the T/C (dose: 12.5 mg/kg/injection, schedule: Q04DX003 (ip), vehicle: saline with Tween-80) is 88 % of control; the T/C (dose: 25.0 mg/kg/injection, schedule: Q04DX003 (ip), vehicle: saline with Tween-80) is 98 % of control and 87 % of control; the T/C (dose: 100.0 mg/kg/injection, schedule: Q01DX001 (ip), vehicle: saline with Tween-80) is 88 % of control.
As for `Cc1ccc(C)c2c(Cl)c3c(C)ccc(C)c3nc12`, the T/C is, setting by setting: under setting [1], 98 % of control; (dose: 100.0 mg/kg/injection, schedule: Q04DX003 (ip), vehicle: other) 100 % of control; under setting [2], 90 % of control; (dose: 200.0 mg/kg/injection, schedule: Q04DX003 (ip), vehicle: other) 97 % of control; under setting [3], 96 % of control; (dose: 400.0 mg/kg/injection, schedule: Q04DX003 (ip), vehicle: other) 95 % of control.
Turning to `O=NN(CCCl)C(=O)Nc1ccc(C(F)(F)F)cc1`, the T/C runs as follows: (dose: 4.6 mg/kg/injection, schedule: Q01DX Z (ip), vehicle: carboxymethylcellulose (CMC)) 154 % of control; (dose: 9.37 mg/kg/injection, schedule: Q01DX Z (ip), vehicle: carboxymethylcellulose (CMC)) 166 % of control; (dose: 18.75 mg/kg/injection, schedule: Q01DX Z (ip), vehicle: carboxymethylcellulose (CMC)) 190 % of control; (dose: 37.5 mg/kg/injection, schedule: Q01DX Z (ip), vehicle: carboxymethylcellulose (CMC)) 108 % of control; (dose: 50.0 mg/kg/injection, schedule: Q01DX001 (ip), vehicle: carboxymethylcellulose (CMC)) 151 % of control; (dose: 75.0 mg/kg/injection, schedule: Q01DX001 (ip), vehicle: carboxymethylcellulose (CMC)) 167 % of control.
Take `CC(=O)Nc1ccc(S(=O)(=O)Nc2ccccc2C(F)(F)F)cc1`: the T/C was 93 % of control under setting [4]; 104 % of control (dose: 200.0 mg/kg/injection, schedule: Q01DX009 (ip), vehicle: saline with Tween-80); 91 % of control (dose: 400.0 mg/kg/injection, schedule: Q01DX009 (ip), vehicle: saline with Tween-80).
Consider `Nc1ccc(Cl)cc1Br`, for which the T/C reads like this: (dose: 50.0 mg/kg/injection, schedule: Q01DX009 (ip), vehicle: acetone) 95 % of control; (dose: 100.0 mg/kg/injection, schedule: Q01DX009 (ip), vehicle: acetone) 92 % of control; (dose: 100.0 mg/kg/injection, schedule: Q04DX003 (ip), vehicle: acetone) 96 % of control; (dose: 200.0 mg/kg/injection, schedule: Q01DX009 (ip), vehicle: acetone) 90 % of control; (dose: 200.0 mg/kg/injection, schedule: Q04DX003 (ip), vehicle: acetone) 100 % of control; (dose: 400.0 mg/kg/injection, schedule: Q04DX003 (ip), vehicle: acetone) 96 % of control.
Regarding `C[N+](C)(Cc1ccccc1)C1c2ccccc2-c2ccc(Br)cc21` (stereo not drawn), the T/C is 97 % of control (dose: 12.5 mg/kg/injection, schedule: Q01DX009 (ip), vehicle: Klucel (hydroxypropylcellulose) (HPC)); 94 % of control (dose: 12.5 mg/kg/injection, schedule: Q04DX003 (ip), vehicle: Klucel (hydroxypropylcellulose) (HPC)); 92 % of control (dose: 25.0 mg/kg/injection, schedule: Q01DX009 (ip), vehicle: Klucel (hydroxypropylcellulose) (HPC)); 94 % of control (dose: 25.0 mg/kg/injection, schedule: Q04DX003 (ip), vehicle: Klucel (hydroxypropylcellulose) (HPC)); 96 % of control (dose: 50.0 mg/kg/injection, schedule: Q01DX009 (ip), vehicle: Klucel (hydroxypropylcellulose) (HPC)); 88 % of control (dose: 50.0 mg/kg/injection, schedule: Q04DX003 (ip), vehicle: Klucel (hydroxypropylcellulose) (HPC)).
As to `CN(c1ccccc1)[N+](=O)[O-]`, the T/C runs as follows: (dose: 100.0 mg/kg/injection, schedule: Q01DX001 (ip), vehicle: other) 94 % of control; (dose: 200.0 mg/kg/injection, schedule: Q01DX001 (ip), vehicle: other) 97 % of control; (dose: 400.0 mg/kg/injection, schedule: Q01DX001 (ip), vehicle: other) 97 % of control.
As for `C=CCOC(=O)C1CC(C(=O)OCC=C)C(C(=O)OCC=C)C1C(=O)OCC=C` (stereo not drawn), the T/C runs as follows: under setting [1], 100 % of control; (dose: 100.0 mg/kg/injection, schedule: Q04DX003 (ip), vehicle: Klucel (hydroxypropylcellulose) (HPC)) 91 % of control; under setting [2], 92 % of control; (dose: 200.0 mg/kg/injection, schedule: Q04DX003 (ip), vehicle: Klucel (hydroxypropylcellulose) (HPC)) 100 % of control; under setting [3], 92 % of control; (dose: 400.0 mg/kg/injection, schedule: Q04DX003 (ip), vehicle: Klucel (hydroxypropylcellulose) (HPC)) 96 % of control.
Consider `Cc1ccc(O)c[n+]1[O-]`, for which the T/C is 94 % of control (dose: 100.0 mg/kg/injection, schedule: Q01DX001 (ip), vehicle: saline); 103 % of control under setting [1]; 101 % of control under setting [5]; 97 % of control (dose: 200.0 mg/kg/injection, schedule: Q01DX001 (ip), vehicle: saline); 94 % of control under setting [2]; 97 % of control under setting [6]. Further, the T/C was 100 % of control (dose: 400.0 mg/kg/injection, schedule: Q01DX001 (ip), vehicle: saline); 103 % of control under setting [3]; 103 % of control (dose: 400.0 mg/kg/injection, schedule: Q04DX003 (ip), vehicle: saline).
With `COc1ccc(/C(N=Nc2ccccc2)=N/N=C(N)N)cc1`, the T/C (dose: 20.0 mg/kg/injection, schedule: Q01DX001 (ip), vehicle: steriod suspending solution) is 105 % of control; the T/C (dose: 40.0 mg/kg/injection, schedule: Q01DX001 (ip), vehicle: steriod suspending solution) is 94 % of control; the T/C (dose: 80.0 mg/kg/injection, schedule: Q01DX001 (ip), vehicle: steriod suspending solution) was 96 % of control.
Regarding `O=C(COc1cc2ccccc2cc1C(=O)O)NCc1ccc(Cl)cc1`, the T/C reads like this: (dose: 25.0 mg/kg/injection, schedule: Q04DX003 (ip), vehicle: saline) 96 % of control; (dose: 50.0 mg/kg/injection, schedule: Q04DX003 (ip), vehicle: saline) 100 % of control; under setting [5], 101 % of control; under setting [6], 101 % of control.
Consider `CCc1ccc(/C=C/c2ccc(O)c3ccccc23)[n+](C)c1`, for which the T/C reads like this: (dose: 75.0 mg/kg/injection, schedule: Q01DX001 (ip), vehicle: saline) 97 % of control; (dose: 150.0 mg/kg/injection, schedule: Q01DX001 (ip), vehicle: saline) 105 % of control.
For the compound `CC(C)CN1CCCC(=O)C(O)CCC1` (stereo not drawn), under “dose: 100.0 mg/kg/injection, schedule: Q01DX001 (ip), vehicle: acetone”, the T/C was 101 % of control.
As to `COc1cc(Nc2ccc(O)c(CN3CCCCC3)c2)c2ncccc2c1`, the T/C was 98 % of control (dose: 75.0 mg/kg/injection, schedule: Q01DX001 (ip), vehicle: other); 98 % of control (dose: 150.0 mg/kg/injection, schedule: Q01DX001 (ip), vehicle: other); 91 % of control (dose: 300.0 mg/kg/injection, schedule: Q01DX001 (ip), vehicle: other).
`CC(C)(C)CC(C)(C)N=C=S`: the T/C reads like this: (dose: 25.0 mg/kg/injection, schedule: Q01DX009 (ip), vehicle: saline with Tween-80) 100 % of control; (dose: 50.0 mg/kg/injection, schedule: Q01DX009 (ip), vehicle: saline with Tween-80) 94 % of control; under setting [4], 96 % of control and 97 % of control.

The values are drawn from PubChem BioAssay AID248 (DTP/NCI, 2004).
